Source: publication PMC7340446, “Optimization of PTH/PTHrP Hybrid Peptides to Derive a Long‐Acting PTH Analog (LA‐PTH)” (JBMR Plus, 2020)
One block for each molecule: values may come before it. Where no end group is shown, it is not given here.

Columns and labels:
TPTX rats = settings: orally available agonist; cited from earlier work
Source text: The low solubility observed for M‐PTH/PTHrP and related analogs containing the C‐terminal PTHrP(15–36) sequence when prepared at high concentrations in aqueous neutral buffer led us to explore amino acid substitutions that would improve solubility yet preserve activity on the PTHR1. […] The resulting analog, [Ala^1,3,12,18,22,Gln^10,Arg^11,Trp^14,Lys^26]‐PTH(1‐14)/PTHrP(15–36), ...

[1] = Pharmacokinetics in normal rats, i.v., plasma peptide by ELISA; type: in vivo, rat; settings: i.v. 10 nmol/kg, plasma with protease inhibitors, n = 4 (M‐PTH/PTHrP) or 3 (PTH(1–34))
Method: For pharmacokinetic studies, plasma samples were prepared in the presence of protease inhibitors (aprotinin, leupeptin, EDTA). Plasma levels of PTH(1–34) were assessed by ELISA assay (Human PTH(1–34) Specific ELISA Kit; Immutopics Inc, San Clemente, CA, USA), and plasma levels of M‐PTH/PTHrP were assessed by ELISA assay (PTH‐RP 1–34 Human Enzyme Immunoassay Kit; Peninsula Laboratories International, San Carlos CA, USA) using M‐PTH/PTHrP peptides as standard solutions.
Figure 3 Pharmacodynamic and pharmacokinetic profiles of M‐PTH/PTHrP and PTH(1–34) in rats. (A) Effects of M‐PTH/PTHrP and PTH(1–34) on blood ionized Ca in TPTX rats by i.v. injection. M‐PTH/PTHrP and PTH(1–34) were injected intravenously in TPTX rats at the indicated doses, and blood samples were collected from the tail vein measured for ionized Ca; data are means ± SE; n = 5 or 3 (PTH(1–34)). *p < 0.05, **p < 0.01, ***p < 0.005 M‐PTH/PTHrP or PTH(1–34) versus TPTX‐vehicle. […] M‐PTH/PTHrP and PTH(1–34) each at a dose of 10 nmol/kg were i.v. administered, and blood samples were collected from the jugular vein in the presence of proteinase inhibitors (Aprotinin, Leupeptin, and EDTA) and the plasma samples were assessed for peptide concentration using a hPTHrP(1–34)‐targeted EIA for M‐PTH/PTHrP and an hPTH(1–34)‐targeted ELISA for PTH(1–34). […]

[2] = Peptide solubility in aqueous buffers of neutral pH; type: physicochemical; settings: lyophilized peptide reconstituted at 1.5 mg/cc in PBS pH 7.4 or 10‐mM acetic acid, 24 hours room temperature, centrifuged, supernatant by BCA protein assay; versus M‐PTH(1‐14)/PTHrP(15‐36)
[3] = test system: amino‐terminal ECD portion of the PTH receptor; settings: cited from earlier work
Source text: In this study, we systematically explored a series of hybrid molecules composed of PTH and PTHrP.

Molecule: Cc1cc(N2C(=O)NC(=O)C2(C)C)cc(C)c1CCS(=O)(=O)N1CCC2(CC1)N=C(c1ccc(OC(F)(F)F)cc1)NC2=O [PCO371]
Effect on sCa and sPi levels (TPTX rats): restore sCa and lower sPi levels

Time by which plasma concentration declined to the lowest detection level [1]: ≤ 60 min
Molecule: CC[C@H](C)[C@H](NC(=O)[C@H](CCC(=O)O)NC(=O)[C@H](CO)NC(=O)[C@@H](NC(=O)[C@@H](N)CO)C(C)C)C(=O)N[C@@H](CCC(N)=O)C(=O)N[C@@H](CC(C)C)C(=O)N[C@@H](CCSC)C(=O)N[C@@H](Cc1cnc[nH]1)C(=O)N[C@@H](CC(N)=O)C(=O)N[C@@H](CC(C)C)C(=O)NCC(=O)N[C@@H](CCCCN)C(=O)N[C@@H](Cc1cnc[nH]1)C(=O)N[C@@H](CC(C)C)C(=O)N[C@@H](CC(N)=O)C(=O)N[C@@H](CO)C(=O)N[C@@H](CCSC)C(=O)N[C@@H](CCC(=O)O)C(=O)N[C@@H](CCCN=C(N)N)C(=O)N[C@H](C(=O)N[C@@H](CCC(=O)O)C(=O)N[C@@H](Cc1c[nH]c2ccccc12)C(=O)N[C@@H](CC(C)C)C(=O)N[C@@H](CCCN=C(N)N)C(=O)N[C@@H](CCCCN)C(=O)N[C@@H](CCCCN)C(=O)N[C@@H](CC(C)C)C(=O)N[C@@H](CCC(N)=O)C(=O)N[C@@H](CC(=O)O)C(=O)N[C@H](C(=O)N[C@@H](Cc1cnc[nH]1)C(=O)N[C@@H](CC(N)=O)C(=O)N[C@@H](Cc1ccccc1)C(=O)O)C(C)C)C(C)C [PTH(1‐34), reference compound]

Peptide solubility in PBS relative to 10 mM acetic acid [2]: improved peptide solubility
Molecule: AVAEIQLMHQRAKWIQDARRRAFLHKLIAEIHTAEI [LA‐PTH, [Ala^1,3,12,Gln^10,Arg^11,Trp^14]PTH(1‐14)/[Ala^18,22,Lys^26]PTHrP(15‐36)COOH]

Molecule: PTHrP(15–36): C‐terminal PTHrP fragment binding the receptor ECD (IQDLRRRFFLHHLIAEIHTAEI; Parathyroid hormone-related protein; UniProt P12272 51-72, looked up, fragment)
Affinity for the ECD relative to the PTH(15–34) fragment [3]: approximately twofold higher affinity
